Tests used:
MNoV^CW3 = test: CRISPR screen in BV2-Cas9 cells, sgRNA enrichment after MNoV^CW3 infection; type: cell-based, murine norovirus; conditions: for log2 fold enrichment after MNV infection relative to mock infected cells, CW3 MOI 0.05: MNoV^CW3, MOI 0.05, ten days post-infection; for log2 fold enrichment after MNV infection relative to mock infected cells, CW3 MOI 5: MNoV^CW3, MOI 5, ten days post-infection
Protocol: (§1) BV2 cells were transduced with pXPR_101 (Addgene plasmid 52962) and selected with blasticidin for eleven days. Cas9 activity was assessed by transducing parental BV2 or BV2-Cas9 cells with pXPR_011 (Addgene plasmid 59702), expresses eGFP and a sgRNA targeting eGFP at an MOI<1 [1]. Cells were transduced for 2 days and subsequently, selected for five days with puromycin and the frequency of eGFP expression was assessed by flow cytometry. The mouse ASIAGO sgRNA CRISPR library contains six independent genome wide pools which each pool containing a unique sgRNA targeting each of 20,077 mouse genes. Four ASIAGO pools were independently used to generate the BV2 library (Doench et al submitted). Each ASIAGO pool was delivered by lentiviral transduction of 5×10^7 BV2 cells at an MOI ˜0.2. This equates to 1×10^7 transduced cells, which is sufficient for the integration of each sgRNA 500 independent times. Two days post transduction, puromycin was added to the media and transduced cells were selected for five days. For each experimental condition, 1×10^7 BV2-Cas9 cells containing sgRNAs were seeded in a T175 tissue culture flask. Cells were infected with either MNoV^CW3 or MNoV^CR6 at MOls of 0.05 and 5. Mock infected cells were harvested 48 hrs after seeding and served as a reference for sgRNA enrichment analysis. Ten days post-infection genomic DNA was isolated from surviving cells using a Qiamp DNA mini kit according to manufacturer instructions (Qiagen).
(§2) Illumina sequencing and STARS analysis was performed as described previously (Doench et al, in press). Briefly, genomic DNA was aliquoted into multiple wells of a 96-well plate with up to 10 μg of DNA in 50 μl total volume. A PCR mastermix consisting of ExTaq DNA polymerase (Clontech), ExTaq buffer, dNTP, P5 stagger primer, and water was generated. 40 μl of PCR master mix, and 10 μl of a barcoded primer was added to each well containing 50 μl of DNA. Samples were PCR amplified as follows: 95° C. for 1 min., followed by 28 cycles of 94° C. for 30 sec., 52.5° C. for 30 sec., 72° C. for 30 sec. with a final 10 min. at 72° C. PCR product was purified with Agencourt AMPure XP SPRI beads according to the manufacture's protocol (Beckman Coluter). Samples were sequenced on an Illumina HiSeq 2000. Barcodes in the P7 primer were deconvuluted and the sgRNA sequence was mapped to a reference file of sgRNAs in the ASIAGO library. To normalize for different numbers of reads per condition, read counts per sgRNA were normalized to 10^7 total reads per sample. This normalized value was then log-2 transformed. sgRNAs that were not sequenced were arbitrarily assigned a read count of 1. sgRNA frequencies were then analyzed using STARS software, which is available at broadinstitute.org/rnai/public/software/index (Doench et al, in press). STARS computes a score for each gene of rank-ordered sgRNA hits that was above […] of total sequenced sgRNAs. A STAR score was only assigned to genes that scored above this threshold in at least two of four independent genome wide pools.

MNoV^CR6 = test: CRISPR screen in BV2-Cas9 cells, sgRNA enrichment after MNoV^CR6 infection; type: cell-based, murine norovirus; conditions: for log2 fold enrichment after MNV infection relative to mock infected cells, CR6 MOI 0.05: MNoV^CR6, MOI 0.05, ten days post-infection; for log2 fold enrichment after MNV infection relative to mock infected cells, CR6 MOI 5: MNoV^CR6, MOI 5, ten days post-infection
Protocol: as §1, §2

Substance	log2 fold enrichment after MNV infection relative to mock infected cells, CW3 MOI 0.05 (MNoV^CW3) [log2 fold enrichment]	log2 fold enrichment after MNV infection relative to mock infected cells, CW3 MOI 5 (MNoV^CW3)	log2 fold enrichment after MNV infection relative to mock infected cells, CR6 MOI 0.05 (MNoV^CR6) [log2 fold enrichment]	log2 fold enrichment after MNV infection relative to mock infected cells, CR6 MOI 5 (MNoV^CR6) [log2 fold enrichment]
GTTACTGTGAACATTGGCCC: sgRNA used in screen, matches CD300lf (listed as DNA, chemistry not given here)	0.0	12.1 log2 fold enrichment	0.0	12.0
TACCACGCCACAGGACTCCA: sgRNA used in screen, matches CD300lg (listed as DNA, chemistry not given here)	0.0	−6.2 log2 fold enrichment	0.0	−6.2
TAGAGCAGAGAACTGCCACA: sgRNA used in screen, matches CD300ld (listed as DNA, chemistry not given here)	−6.7	−6.7 log2 fold enrichment	−6.7	−6.7
TCAGAGAAAGAAACGAAGAG: sgRNA used in screen, matches CD300lb (listed as DNA, chemistry not given here)	−5.5	−5.5 log2 fold enrichment	−5.5	−5.5
TGTCACTGTGAAGATGGTGG: sgRNA used in screen, matches CD300lf (listed as DNA, chemistry not given here)	8.4	13.3^B log2 fold enrichment	7.2	−1.9
